Reference: patent US7592188B2, “Live cell biosensors” (The Scripps Research Institute, priority 2004, dated 2009)
Entries after “also recorded” stand apart in the source; their conditions may differ.

Key:
[1] = Photophysical properties of dyes in various solvents (absorbance, emission, quantum yield); format: physicochemical; parameters: ε × F / ε × Φ: unit not given here
Description: Analytical grade reagents were purchased from major suppliers. […] Emission and excitation spectra were obtained using a Spex Fluorolog 2 spectrofluorometer at 23° C. […] Demas et al., J. Phys. […] All operations with dyes were performed under dim light. Flasks containing dyes were wrapped with aluminum foil.

[2] = Dye photo-bleaching under tungsten lamp irradiation; format: physicochemical
Description: Photo-bleaching. All samples contained 1 mM dye in a final volume of 10 mL. For nitrogen and oxygen saturation the samples were bubbled with solvent-saturated gas for 30 min. A 90 W halogen tungsten lamp was employed for irradiation, with a fan used for cooling. The temperature of samples was 25±1° C. during reactions. The absorption spectrum of each sample was measured before irradiation and after every 10 h period. For the trapping experiment thioanisole (1.0 M) was added to oxygen-saturated butanol solution of dye 1b. After 60 h of irradiation the reaction mixture was analyzed by GC-MS for products formed. The products, methylphenylsulfoxide and methylphenyl sulfone, were identified by comparison with authentic samples.
Dyes used in living cells must be photostable to provide many sequential images and to obtain sufficient light from minimal amounts of exogenous labeled material. The photostability of the new dyes was characterized by exposing them to constant illumination from a tungsten lamp filtered through glass, a broad spectrum light source that provided essentially equal intensity throughout the spectral range where the dyes would be irradiated in vivo. A fan was used to prevent heating, and dye solutions were adjusted for equal maximal absorbance, kept below 1 μM to minimize the inner filter effect. […] Photo-bleaching followed first-order kinetics in all cases.

[3] = Quantum yield of triplet state formation; format: physicochemical; details: in ethanol
Erk2 = assay: Fluorescence response of dye-labeled Erk2 to phosphorylation; format: biochemical
Source text: This Example illustrates that the dyes of the invention can be attached directly to a protein of interest (e.g. Erk), where the dyes respond to conformational changes and phosphorylation. In particular, the I-TBA-3CNPh dye was attached to cysteine 214 of the MAP kinase Erk2, where it responded to Erk phosphorylation. A structure for the I-TBA-3CNPh dye is provided below.
This model was based on tryptic digestion combined with mass spectroscopic sequencing of the labeled protein, and on docking studies. The lighter (yellow) residues represent two lysines undergoing hydrogen bonding with the dye, and a tryptophan interacting through π-π stacking. Phosphorylation of the purple residues altered the conformation of the protein, affecting the tryptophan interaction and perturbing some of the hydrogen bonds.

Cdc42 [4] = target: T1, Cdc42 (Homo sapiens, UniProt P60953); assay: Analysis of Cdc42 activation: fluorescence of dye-labeled WASP fragment; format: binding
T1 construct: 6His; made in house; host or cells: E. coli BL21DE3, only by the words 'analogous procedures' to the CBD preparation
Description: Analysis of Cdc42 Activation. A solution of the WASP conjugate (300 nM) in a assay buffer (50 mM Tris-HCl, pH 7.6, 50 mM NaCl, 5 mM MgCl2, 1 mM DTT) was mixed 1:1 (v/v) with solutions of Cdc42, pre-equilibrated with 10 mM GDP or GTPγS as described below. Emission at 630 nm and excitation at 600 nm were used to acquire excitation and emission spectra, respectively. For nucleotide dependence, Cdc42 (500 nM) was preincubated with varying concentrations of GTPγS (1-500 nM).

Rho kinase = assay: Extension and retraction of protrusions with Rho kinase inhibitor; format: cell-based
Source text: These possibilities were distinguished by blocking retraction using an inhibitor of Rho kinase (Y27632).

[5] = Water solubility and aggregation of dyes in water (absorbance spectra); details: in words
Source text: Labeling was accomplished only by including greater than 5% DMSO as cosolvent.

Rac = target: T2, Rac (Homo sapiens, UniProt P63000); assay: Specificity of I-SO WASP biosensor for activated GTPases; format: binding; details: concentrations well above physiological levels
T2 construct: 6His; made in house; host or cells: E. coli BL21DE3, only by the words 'analogous procedures'
Description: (§1) Further studies were conducted using the I—SO dye 4b attached at position F271 C of the WASP fragment. This biosensor had properties similar to the S—SO biosensor described above. […] To determine the specificity of the biosensor, interactions with different activated GTPases were examined. The biosensor distinguished proteins closely related to Cdc42 from other members of the Rho family.

RhoA = target: T3, RhoA (Homo sapiens, UniProt P61586); assay: as above; format: binding; details: concentrations well above physiological levels
T3 construct: 6His; made in house; host or cells: E. coli BL21DE3, only by the words 'analogous procedures'
Description: as §1

TC10 = TC10 (Homo sapiens, UniProt P17081); assay: as above; format: binding
Description: as §1

Cdc42 [6] = assay: MeroCBD biosensor imaging of Cdc42 activation in living cells; format: cell-based; details: in words
Source text: The I—SO labeled WASP fragment provided a straightforward means to assay Cdc42 activation in cell lysates. By simply adding the biosensor to the lysate, the fluorescence readout of Cdc42 activation. This method was used to determine the kinetics of Cdc42 activation in neutrophils after stimulation with chemoattractant fMetLeuPhe (FMLP) peptide. Results obtained paralleled those previously reported using well-established methods (Benard et al., J. Biol. Chem. 275: 36457 (2000). Fluorescence of the biosensor was also used to monitor the real-time kinetics of Cdc42 GDP/GTP exchange in vitro. Because the labeled WASP fragment responded to activated Cdc42 through fluorescence intensity modulation, a ratiometric imaging approach was used to correct for effects of varying cell thickness, uneven illumination, and other factors that could affect imaging of dye intensity (Bright et al., Methods Cell Biol. 14: 157 (1989). The biosensor was fused to enhanced green fluorescent protein (EGFP) to provide a fluorescence signal insensitive to Cdc42 binding, but with the same subcellular distribution as the sensitive dye. The dye image could be divided by the EGFP image to normalize changes in dye intensity not originating from Cdc42 binding. […] Fluorescence response and Cdc42 binding of the biosensor remained intact after these modifications. […]

T1 sequence (P60953 whole entry, species assumed, the tested form may be a part): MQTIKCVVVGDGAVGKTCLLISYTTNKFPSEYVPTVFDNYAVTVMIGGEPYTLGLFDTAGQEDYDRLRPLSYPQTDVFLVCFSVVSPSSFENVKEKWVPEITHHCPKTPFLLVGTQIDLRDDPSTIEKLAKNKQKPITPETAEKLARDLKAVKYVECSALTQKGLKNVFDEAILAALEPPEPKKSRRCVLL
Sequence of TC10 (P17081 whole entry, species assumed): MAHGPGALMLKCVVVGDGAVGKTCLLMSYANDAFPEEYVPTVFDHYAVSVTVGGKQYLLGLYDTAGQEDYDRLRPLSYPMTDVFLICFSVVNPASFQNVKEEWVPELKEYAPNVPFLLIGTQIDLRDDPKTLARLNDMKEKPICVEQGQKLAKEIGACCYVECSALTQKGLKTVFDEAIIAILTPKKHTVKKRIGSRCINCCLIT
T3 sequence (P61586 whole entry, species assumed): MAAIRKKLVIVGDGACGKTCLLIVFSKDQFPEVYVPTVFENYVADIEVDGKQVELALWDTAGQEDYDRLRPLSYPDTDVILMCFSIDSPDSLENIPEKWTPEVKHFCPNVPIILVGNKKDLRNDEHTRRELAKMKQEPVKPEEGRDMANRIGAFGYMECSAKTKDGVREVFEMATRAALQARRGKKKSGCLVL

CN1C(=O)C(=C/C=C/C=C2\N(C)c3ccccc3C2(C)C)C(=O)N(C)C1=S [dye 3a, 1,3-Dimethyl-2-thioxo-5-[(2E,4Z)-4-(1,3,3-trimethyl-1,3-dihydro-2H-indol-2-ylidene)but-2-enylidene]dihydropyrimidine-4,6(1H,5,H)-dione]
Abs. λmax ([1]; solvent BuOH): 589 nm
Emission λmax ([1]; solvent BuOH): 609 nm
Φ (quantum yield of fluorescence) ([1]; solvent BuOH): 0.61
ε (molar extinction coefficient) ([1]; solvent BuOH): (190000)
ε × F ([1]; solvent BuOH): 116000
Abs. λmax ([1]; solvent C6H6): 584 nm
Emission λmax ([1]; solvent C6H6): 605 nm
Φ (quantum yield of fluorescence) ([1]; solvent C6H6): 0.20
ε (molar extinction coefficient) ([1]; solvent C6H6): (127000)
ε × F ([1]; solvent C6H6): 26000
Abs. λmax ([1]; solvent DMF): 589 nm
Emission λmax ([1]; solvent DMF): 611 nm
Φ (quantum yield of fluorescence) ([1]; solvent DMF): 0.94
ε (molar extinction coefficient) ([1]; solvent DMF): (183000)
ε × F ([1]; solvent DMF): 172000
Abs. λmax ([1]; solvent MeOH): 583 nm
Emission λmax ([1]; solvent MeOH): 603 nm
Φ (quantum yield of fluorescence) ([1]; solvent MeOH): 0.26
ε (molar extinction coefficient) ([1]; solvent MeOH): (173000)
ε × F ([1]; solvent MeOH): 45000
Abs. λmax ([1]; solvent OcOH): 590 nm
Emission λmax ([1]; solvent OcOH): 609 nm
Φ (quantum yield of fluorescence) ([1]; solvent OcOH): 0.99
ε (molar extinction coefficient) ([1]; solvent OcOH): (180000)
ε × F ([1]; solvent OcOH): 178000
Absolute rate constant of dye photo-bleaching, kph × 10^6 ([2]; BuOH): 0.78 s^−1
Absolute rate constant of dye photo-bleaching, kph × 10^6 ([2]; MeOH): 0.18 s^−1
ΦT, quantum yield of triplet state formation [3]: 0.003

labeled Erk2 protein: MAP kinase Erk2 with I-TBA-3CNPh dye attached to cysteine 214
phosphorylation activity of labeled Erk2 (Erk2; Western blots, substrate Elk): retains phosphorylation activity

CCN1/C(=C/C=C/C=C/C2=[N+](CCCCCC(=O)O)c3ccc(S(=O)(=O)O)cc3C2(C)C)C(C)(C)c2cc(S(=O)(=O)[O-])ccc21 [Cy5, reference compound]
Absolute rate constant of dye photo-bleaching, kph × 10^6 ([2]; BuOH): 0.77 s^−1
Absolute rate constant of dye photo-bleaching, kph × 10^6 ([2]; MeOH): 1.0 s^−1
change in fluorescence intensity of cyanine-labeled WASP fragment (Cdc42 [4]; control experiments, WASP fragment labeled with Cy3 or Cy5): no change in fluorescence intensity was observed

CCN1/C(=C\C=C\C=C2C(=O)N(C)C(=S)N(C)C2=O)Sc2ccccc21 [dye 1b, 1,3-Dimethyl-5-[(2E,4E)-4-(3-ethyl-1,3-benzothiazol-2(3H)-ylidene)-but-2-enylidene]-2-thioxodihydropyrimidine-4,6(1H,5H)-dione]
Abs. λmax ([1]; solvent BuOH): 595 nm
Emission λmax ([1]; solvent BuOH): 613 nm
Φ (quantum yield of fluorescence) ([1]; solvent BuOH): 0.26
ε (molar extinction coefficient) ([1]; solvent BuOH): (188000)
ε × F ([1]; solvent BuOH): 49000
Abs. λmax ([1]; solvent C6H6): 600 nm
Emission λmax ([1]; solvent C6H6): 617 nm
Φ (quantum yield of fluorescence) ([1]; solvent C6H6): 0.37
ε (molar extinction coefficient) ([1]; solvent C6H6): (184000)
ε × F ([1]; solvent C6H6): 68000
Abs. λmax ([1]; solvent DMF): 595 nm
Emission λmax ([1]; solvent DMF): 613 nm
Φ (quantum yield of fluorescence) ([1]; solvent DMF): 0.32
ε (molar extinction coefficient) ([1]; solvent DMF): (194000)
ε × F ([1]; solvent DMF): 62000
Abs. λmax ([1]; solvent MeOH): 583 nm
Emission λmax ([1]; solvent MeOH): 606 nm
Φ (quantum yield of fluorescence) ([1]; solvent MeOH): 0.13
ε (molar extinction coefficient) ([1]; solvent MeOH): (134000)
ε × F ([1]; solvent MeOH): 18000
Abs. λmax ([1]; solvent OcOH): 598 nm
Emission λmax ([1]; solvent OcOH): 615 nm
Φ (quantum yield of fluorescence) ([1]; solvent OcOH): 0.52
ε (molar extinction coefficient) ([1]; solvent OcOH): (220000)
ε × F ([1]; solvent OcOH): 115000
Absolute rate constant of dye photo-bleaching, kph × 10^6 ([2]; BuOH): 5.2 s^−1
Absolute rate constant of dye photo-bleaching, kph × 10^6 ([2]; MeOH): 4.3 s^−1
ΦT, quantum yield of triplet state formation [3]: 0.008

C[C@@H](N)[C@H]1CC[C@H](C(=O)Nc2ccncc2)CC1 [Y27632]
effect on protrusions (Rho kinase): caused protrusions to continue expanding even after Cdc42 activity decreased

CN1C(=O)C(=C/C=C/C=C2/Sc3ccccc3N2CCCS(=O)(=O)[O-])C(=O)N(C)C1=S.[Na+] [dye 1c, Sodium 3-[(2E)-2-[(2E)-4-(1,3-Dimethyl-4,6-dioxo-2-thioxotetrahydro-pyrimidin-5(2H)-ylidene)but-2-enylidene]-1,3-benzothiazol-3(2H)-yl]propane-1-sulfonate]
water solubility [5]: significantly improved

CC1(C)/C(=C\C=C\C=C2C(=O)N(Cc3cccc(C#N)c3)C(=S)N(Cc3cccc(C#N)c3)C2=O)N(CCCNC(=O)CI)c2ccc(S(=O)(=O)O)cc21 [I-TBA-3CNPh]
fluorescence change of dye-labeled Erk2 (Erk2; incubation with MEK kinase and ATP): phosphorylation-induced increase in fluorescence

B1: labeled WASP fragment: WASP fragment (residues 201-320, F271C) derivatized with S—SO dye 2e (conjugate)
chain: DIQNPDITSSRYRGLPAPGPSPADKKRSGKKKISKADIGAPSGFKHVSHVGWDPQNGFDVNNLDPDLRSLCSRAGISEAQLTDAETSKLIYDFIEDQGGLEAVRQEMRRQEPLPPPPPPS
modifications: left off: small tags and cut ends
notes: WASP fragment (residues 201-320, F271C) derivatized with S—SO dye 2e
increase in fluorescence intensity (Cdc42 [4]; incubated with activated Cdc42): 300%

B2: I—SO-WASP biosensor: I—SO dye attached at position F271C of the WASP fragment (conjugate)
chain: B1 chain
modifications: left off: small tags and cut ends
notes: I—SO dye attached at position F271C of the WASP fragment
interaction with Rac (Rac): did not interact
interaction with RhoA (RhoA): did not interact
response to TC10 (TC10): responded

B3: MeroCBD (conjugate)
chain: DIQNPDITSSRYRGLPAPGPSPADKKRSGKKKISKADIGAPSGFKHVSHVGWDPQNGFDVNNLDPDLRSLCSRAGISEAQLTDAETSKLIYDFIEDQGGLEAVRQEMRRQEPLP
modifications: left off: large carriers
Cdc42 activation reported by biosensor in living cells (Cdc42 [6]): showed localized Cdc42 activation even in unstimulated cells; also recorded: consistently showed activation in the trans-Golgi apparatus of endothelial cells
